Laboratory results taken from US5189043A, “Isoquinolone derivatives, their production and use” (Takeda Chemical Industries, Ltd., priority 1989, dated 1993).

Molecular target: T1, HMG-CoA reductase of rat's liver microsome (Rattus norvegicus, UniProt P51639)
T1 construct: from tissue; host or cells: liver microsomes of male Sprague-Dawley rats fed 5% cholestyramine diet for 5 days
T1 sequence (P51639 1-887): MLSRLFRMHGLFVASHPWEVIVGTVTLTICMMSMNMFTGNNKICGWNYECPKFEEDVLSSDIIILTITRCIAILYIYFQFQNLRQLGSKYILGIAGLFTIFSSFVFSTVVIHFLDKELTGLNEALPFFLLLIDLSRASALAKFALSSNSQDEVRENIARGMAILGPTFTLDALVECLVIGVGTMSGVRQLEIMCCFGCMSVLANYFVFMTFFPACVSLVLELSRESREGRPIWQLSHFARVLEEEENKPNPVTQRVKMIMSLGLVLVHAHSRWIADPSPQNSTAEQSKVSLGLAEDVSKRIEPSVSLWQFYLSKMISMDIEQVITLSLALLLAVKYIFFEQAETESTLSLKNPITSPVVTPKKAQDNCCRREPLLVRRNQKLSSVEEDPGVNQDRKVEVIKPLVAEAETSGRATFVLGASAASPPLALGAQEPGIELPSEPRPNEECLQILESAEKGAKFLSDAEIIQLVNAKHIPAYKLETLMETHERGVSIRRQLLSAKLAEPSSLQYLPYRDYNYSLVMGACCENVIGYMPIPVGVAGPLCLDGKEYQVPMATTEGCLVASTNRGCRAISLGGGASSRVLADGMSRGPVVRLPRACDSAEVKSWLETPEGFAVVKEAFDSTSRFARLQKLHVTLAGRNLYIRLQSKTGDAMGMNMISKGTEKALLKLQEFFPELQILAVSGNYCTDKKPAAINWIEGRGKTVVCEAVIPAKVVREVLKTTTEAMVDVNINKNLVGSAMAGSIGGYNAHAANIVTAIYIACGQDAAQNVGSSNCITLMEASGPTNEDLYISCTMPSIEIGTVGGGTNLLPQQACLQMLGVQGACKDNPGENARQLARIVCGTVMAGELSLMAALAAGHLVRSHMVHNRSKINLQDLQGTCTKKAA
Test: Inhibitory action for HMG-CoA reductase of rat's liver microsome
Type: biochemical, male Sprague-Dawley rats
Conditions: at 10-^6 M, rat liver microsome (cholestyramine-fed), d,l-[3-^14 C]-HMG-CoA 0.5 mM, NADPH 20 mM, 37° C. 30 minutes; for inhibition at 1 µM: 0.5 h
Protocol: Inhibitory action for HMG-CoA reductase of rat's liver microsome
5% cholestyramine diet was fed to male Sprague-Dawley rats (300-400 g of body weight) for 5 days. Activity for HMG-CoA reductase of liver microsome was measured by a variant of the method of Shapiro et al [Biochem. Biophys. Acta 370, 36(1974)]. In this method, the enzyme activity is determined by measuring the formation of ^14 C-mevalonate from a substrate [3^14 C]-HMG-CoA in the presence of NADPH. ^14 C-Mevalonate is converted into its lactone which can be isolated by silica gel thin layer chromatography developing with benzene: acetone (50:50).
In order to measure inhibitory action for HMG-CoA reductase, test compound was dissolved in dimethyl sulfoxide and the solution was diluted with a buffer solution (100 mM phosphate buffer, 20 mM EDTA.2Na, […] dithioethritol).
The resulting mixture was incubated with microsome (120 μg protein) at 30° C. for 15 minutes, and further incubated at 37° C. for 30 minutes after addition of d,l-[3-^14 C]-HMG-CoA (0.5 mM, 5000 dpm/nmol) and NADPH (20 mM).

Row | inhibition at 1 µM [%] | SMILES | Inhibition (%)
1 | 90.6 | C=CCn1c(-c2ccc(F)cc2)c(/C=C/[C@@H](O)C[C@@H](O)CC(=O)O)c2ccccc2c1=O (relative stereo) [Example 43-2] | 
2 | 96.9 | O=C(O)C[C@H](O)C[C@H](O)/C=C/c1c(-c2ccc(F)cc2)n(CCc2ccc(F)cc2)c(=O)c2ccccc12 (relative stereo) [Example 35-2] | 
3 | 94.2 | CCn1c(-c2ccc(F)cc2)c(/C=C/[C@@H](O)C[C@@H](O)CC(=O)OC)c2ccccc2c1=O (relative stereo) [Example 15-1] | 
4 | 95.7 | O=C(O)C[C@H](O)C[C@H](O)/C=C/c1c(-c2ccc(F)cc2)n(CCc2ccc(Cl)cc2)c(=O)c2ccccc12 (relative stereo) [Example 33-2] | 
5 | 94 | Cn1c(-c2ccc(F)cc2)c(/C=C/[C@@H](O)C[C@@H](O)CC(=O)O)c2ccccc2c1=O (relative stereo) [Example 14-2] | 
6 | 95.1 | O=C(O)C[C@H](O)C[C@H](O)/C=C/c1c(-c2ccc(F)cc2)n(CCc2ccccc2)c(=O)c2ccccc12 (relative stereo) [Example 13-2] | 
7 | 90.4 | Cc1cc(F)ccc1-c1c(/C=C/[C@@H](O)C[C@@H](O)CC(=O)O)c2ccccc2c(=O)n1C(C)C (relative stereo) [Example 5-2] | 
8 | 96.5 | CCCCCn1c(-c2ccc(F)cc2)c(/C=C/[C@@H](O)C[C@@H](O)CC(=O)O)c2ccccc2c1=O (relative stereo) [Example 18-2] | 
9 | 89.6 | O=C(O)C[C@H](O)C[C@H](O)/C=C/c1c(-c2ccc(F)cc2)n(CCCc2ccccc2)c(=O)c2ccccc12 (relative stereo) [Example 32-2] | 
10 | 96.6 | CCCn1c(-c2ccc(F)cc2)c(/C=C/[C@@H](O)C[C@@H](O)CC(=O)O)c2c(c1=O)CCCC2 (relative stereo) [Example 48-2] | 
11 | 88 | CCCCCCCn1c(-c2ccc(F)cc2)c(/C=C/[C@@H](O)C[C@@H](O)CC(=O)O)c2ccccc2c1=O (relative stereo) [Example 19-2] | 
12 | 91.7 | O=C(O)C[C@H](O)C[C@H](O)/C=C/c1c(-c2ccc(F)cc2)n(CCc2cccc(F)c2)c(=O)c2ccccc12 (relative stereo) [Example 39-2] | 
13 | 92 | COc1cc(F)ccc1-c1c(/C=C/[C@@H](O)C[C@@H](O)CC(=O)O)c2ccccc2c(=O)n1C(C)C (relative stereo) [Example 1-2, Sodium [3R*,5S*(E)]-7-[1,2-dihydro-3-(4-fluoro-2-methoxyphenyl-2-(1-methylethyl)-1-oxo-4-isoquinolinyl]-3,5-dihydroxy-6-heptenoate] | 
14 | 95.8 | CCCCn1c(-c2ccc(F)cc2)c(/C=C/[C@@H](O)C[C@@H](O)CC(=O)O)c2ccccc2c1=O (relative stereo) [Example 17-2] | 
15 | 95 | CC(C)Cn1c(-c2ccc(F)cc2)c(/C=C/[C@@H](O)C[C@@H](O)CC(=O)O)c2ccccc2c1=O (relative stereo) [Example 21-2] | 
16 | 88.2 | COCCn1c(-c2ccc(F)cc2)c(/C=C/[C@@H](O)C[C@@H](O)CC(=O)O)c2ccccc2c1=O (relative stereo) [Example 41-2] | 
17 | 97.1 | CCCn1c(-c2ccc(F)cc2)c(/C=C/[C@@H](O)C[C@@H](O)CC(=O)O)c2ccccc2c1=O [Example 49-2, Sodium [3R, 5S(E)]-7-[1,2-dihydro-3-(4-fluorophenyl)-2-propyl-1-oxo-4-isoquinolinyl]-3,5-dihydroxy-6-heptenoate] | 
18 | 93.2 | Cc1ccc(CCn2c(-c3ccc(F)cc3)c(/C=C/[C@@H](O)C[C@@H](O)CC(=O)O)c3ccccc3c2=O)cc1 (relative stereo) [Example 36-2] | 
19 | 91.1 | CCOC(=O)C[C@H](O)C[C@H](O)/C=C/c1c(-c2ccc(F)cc2)n(C)c(=O)c2ccccc12 (relative stereo) [Example 14-1] | 

Row | inhibition at 1 µM [%] | SMILES | Inhibition (%)
20 | 91.2 | CC(C)n1c(-c2ccc(F)cc2)c(/C=C/[C@@H](O)C[C@@H](O)CC(=O)O)c2ccccc2c1=O (relative stereo) [Example 2-2, Sodium [3R*,5S*(E)]-7-[1,2-dihydro-3-(4-fluorophenyl)-2-(1-methylethyl)-1-oxo-4-isoquinolinyl]-3,5-dihydroxy-6-heptenoate] | 
21 | 92.5 | CCCn1c(-c2ccc(F)cc2)c(/C=C/[C@@H]2C[C@@H](O)CC(=O)O2)c2ccccc2c1=O [Example 49-3] | 
22 | 96.1 | CCn1c(-c2ccc(F)cc2)c(/C=C/[C@@H](O)C[C@@H](O)CC(=O)O)c2ccccc2c1=O (relative stereo) [Example 15-2] | 
23 | 94.2 | CCCn1c(-c2ccc(F)cc2)c(/C=C/[C@@H](O)C[C@@H](O)CC(=O)OCC)c2ccccc2c1=O (relative stereo) [Example 16-1] | 
24 | 96.2 | CCCn1c(-c2ccc(F)cc2)c(/C=C/[C@@H](O)C[C@@H](O)CC(=O)O)c2ccccc2c1=O (relative stereo) [Example 16-2] | 
25 | 93.4 | CCCCn1c(-c2ccc(F)cc2)c(/C=C/[C@@H](O)C[C@@H](O)CC(=O)OC)c2ccccc2c1=O (relative stereo) [Example 17-1] | 
26 | 93.3 | CC(C)n1c(-c2ccc(F)cc2)c(/C=C/[C@@H](O)C[C@@H](O)CC(=O)O)c2c(c1=O)CCCC2 (relative stereo) [Example 47-2] | 
27 | 95.9 | COc1ccccc1CCn1c(-c2ccc(F)cc2)c(/C=C/[C@@H](O)C[C@@H](O)CC(=O)O)c2ccccc2c1=O (relative stereo) [Example 38-2] | 
28 | 90.4 | CCCn1c(-c2ccc(F)cc2C)c(/C=C/[C@@H](O)C[C@@H](O)CC(=O)O)c2ccccc2c1=O (relative stereo) [Example 10-2] | 
29 | 92.6 | O=C(O)C[C@H](O)C[C@H](O)/C=C/c1c(-c2ccc(F)cc2)n(CCc2ccccc2F)c(=O)c2ccccc12 (relative stereo) [Example 40-2] | 
30 |  | CC[C@H](C)C(=O)O[C@H]1C[C@@H](C)C=C2C=C[C@H](C)[C@H](CC[C@@H]3C[C@@H](O)CC(=O)O3)[C@H]21 [Mevinolin, reference compound] | 75.5
31 | 89.6 | COC(=O)C[C@H](O)C[C@H](O)/C=C/c1c(-c2ccc(F)cc2)n(CCc2ccccc2)c(=O)c2ccccc12 (relative stereo) [Example 13-1] | 
32 | 89.6 | O=C(O)C[C@H](O)C[C@H](O)/C=C/c1c(-c2ccc(F)cc2)n(Cc2ccccc2)c(=O)c2ccccc12 (relative stereo) [Example 24-2] | 
33 | 94.1 | CSCCn1c(-c2ccc(F)cc2)c(/C=C/[C@@H](O)C[C@@H](O)CC(=O)O)c2ccccc2c1=O (relative stereo) [Example 42-2] | 
34 | 96.2 | COc1ccc(CCn2c(-c3ccc(F)cc3)c(/C=C/[C@@H](O)C[C@@H](O)CC(=O)O)c3ccccc3c2=O)cc1 (relative stereo) [Example 37-2] | 
35 | 90.9 | CCCn1c(-c2ccc(F)cc2F)c(/C=C/[C@@H](O)C[C@@H](O)CC(=O)O)c2ccccc2c1=O (relative stereo) [Example 11-2] | 
36 | 91.3 | COC(=O)C[C@H](O)C[C@H](O)/C=C/c1c(-c2ccc(F)cc2)n(CC(C)C)c(=O)c2ccccc12 (relative stereo) [Example 21-1] | 
37 | 90.7 | CCCCCn1c(-c2ccc(F)cc2)c(/C=C/[C@@H](O)C[C@@H](O)CC(=O)OC)c2ccccc2c1=O (relative stereo) [Example 18-1] | 
